These results are taken from US8188059B2, “Compounds and methods for modulating expression of GCGR” (Isis Pharmaceuticals, Inc., priority 2006, dated 2012).

One series concerns GCGR mRNA. The experiment in a line: Antisense inhibition of GCGR in HepG2 cells, 25-200 nM (Example 21, Table 79). It counts as cell-based, human. As to conditions: for percent reduction in GCGR mRNA: HepG2 cells, relative to untreated control cells. On the procedure:
Short antisense compounds targeted to a GCGR nucleic acid were tested for their effects on GCGR mRNA in vitro.
Cultured HepG2 cells at a density of 10000 cells per well in a 96-well plate were treated as described herein with 25, 50, 100 or 200 nM of antisense oligonucleotide. After the treatment period, RNA was isolated from the cells and GCGR mRNA levels were measured by quantitative real-time PCR, as described herein. GCGR mRNA levels were adjusted according to total RNA content as measured by RIBOGREEN®. Results are presented as percent reduction in GCGR mRNA, relative to untreated control cells.

The test system of a further series is monkey GCGR mRNA. Briefly: Antisense inhibition of GCGR in primary monkey hepatocytes, 25-200 nM (Example 21, Table 80). As to conditions: relative to untreated control cells. It counts as cell-based. On the procedure: Additional short antisense compounds targeted to a GCGR nucleic acid were tested for their effects on monkey GCGR mRNA in vitro. Cultured primary monkey hepatocytes were treated as described herein with 25, 50, 100 or 200 nM of short antisense compound. After the treatment period, RNA was isolated from the cells and GCGR mRNA levels were measured by quantitative real-time PCR, as described herein. GCGR mRNA levels were adjusted according to total RNA content as measured by RIBOGREEN®. Results are presented in Table 80 as percent reduction in GCGR mRNA, relative to untreated control cells.

Series [1] deals with rat SGLT2 mRNA. The experiment in a line: Rat SGLT2 mRNA levels in kidney, 1-10-1 and 1-10-2 MOE gapmers, Sprague-Dawley rats (Example 13, Table 63). In kind it is in vivo. From the text:
1-10-1 and 1-10-2 MOE gapmer antisense compounds, provided in Table 62, were designed to target different regions of the mouse or rat SGLT2 RNA. All short antisense compounds in Table 62 are chimeric oligonucleotides (“gapmers”) either 12 or 13 nucleotides in length, composed of a central “gap” segment consisting of ten 2′-deoxynucleotides, which are flanked on the 5′ side by a one-nucleoside “wing” and on the 3′ side by a two or one-nucleotide “wing”. […] All cytidine residues are 5-methylcytidines.
The short antisense compounds were analyzed for their effect on rat SGLT2 mRNA levels. Data are ranges taken from three experiments in which Male Sprague-Dawley rats (170-200 g) were dosed twice per week for three weeks with 450, 150 or 50 nmol/kg of either a 1-10-1 or 1-10-2 MOE gapmer given by intraperitoneal injection. Rats were sacrificed 48 hours following last administration and evaluated for SGLT2 mRNA levels in kidney. Target levels were determined by RT, real-time PCR as described by other examples herein. PCR results were normalized to an internal ISIS control.

The subject of series [2] is mouse SGLT2 mRNA. Briefly: Mouse SGLT2 mRNA levels in kidney, 1-10-1 MOE gapmers, Balb/c mice (Example 14, Table 65). In kind it is in vivo. On the procedure: The short antisense compounds were analyzed for their effect on mouse SGLT2 mRNA levels. Data was taken from three experiments in which Male 6-week old Balb/c mice were dosed twice per week for two weeks with 450, 150, or 50 nmol/kg of one of the above 1-10-1 MOE gapmers given by intraperitoneal injection. Mice were sacrificed 48 hours following last administration and evaluated for SGLT2 mRNA levels in kidney. Target levels were determined by RT, real-time PCR as described by other examples herein. PCR results were normalized to an internal ISIS control.

The subject of series [3] is rat SGLT2 mRNA. The experiment in a line: Rat SGLT2 mRNA levels in kidney, 1-10-1 gapmers at 250 nmol/kg, Sprague-Dawley rats (Example 14, Table 66). In kind it is in vivo. As to conditions: 250 nmol/kg i.p. twice per week for three weeks; Sprague-Dawley rats; kidney. How it is done: The effect of the above 1-10-1gapmers (see Table 64 above) on rat SGLT2 mRNA levels. Data are taken from four experiments in which male Sprague-Dawley rats (170-200 g) were dosed twice per week for three weeks with 250 nmol/kg given by intraperitoneal injection. Rats were sacrificed 48 hours following last administration and evaluated for SGLT2 mRNA levels in kidney. Target levels were determined by RT, real-time PCR as described by other examples herein. PCR results were normalized to an internal ISIS control.

Series [4] relates to mouse SGLT2 mRNA. Briefly: Mouse SGLT2 mRNA levels in kidney, additional 1-10-1 and 2-8-2 MOE gapmers, Balb/c mice (Example 15, Table 68). It counts as in vivo. How it is done: 1-10-1 and 2-8-2 MOE gapmer short antisense compounds were designed to target different regions of the mouse SGLT2 RNA but have complementarity across species. […] All cytidine residues are 5-methylcytidines.
The short antisense compounds were analyzed for their effect on mouse SGLT2 mRNA levels in vivo. Data was taken from three experiments in which male 6-week old Balb/c mice were dosed twice per week for three weeks with 0.5, 0.1, or 0.02 umol/kg of either a 1-10-1 or 2-8-2 MOE gapmer given by intraperitoneal injection. Mice were sacrificed 48 hours following last administration and evaluated for SGLT2 levels in kidney. Target levels were determined by RT, real-time PCR as described by other examples herein. PCR results were normalized to an internal ISIS control.

The test system of series [5] is mouse SGLT2 mRNA. Briefly: Mouse SGLT2 mRNA levels in kidney, MOE versus Methyleneoxy BNA gapmers, Balb/c mice (Example 15, Table 69). In kind it is in vivo. On the procedure: The effect of ISIS 379692 1-10-1 MOE gapmer and ISIS 388625 2-8-2 MOE gapmer are compared with the effect of ISIS 392170 1-10-1 Methyleneoxy BNA Gapmer and ISIS 392173 2-8-2 Methyleneoxy BNA Gapmer (see Table 69) on mouse SGLT2 mRNA levels in vivo. Data are taken from three experiments in which male 6-week old Balb/c mice were dosed twice per week for three weeks with 5, 25 and 125 nmol/kg of either the ISIS 379692 1-10-1 MOE gapmer or the ISIS 388625 2-8-2 MOE gapmer given by intraperitoneal injection. Mice were sacrificed 48 hours following last administration and evaluated for SGLT2 mRNA levels in kidney. Target levels were determined by RT, real-time PCR as described by other examples herein. PCR results were normalized to an internal ISIS control. The data are expressed as percent change (“+” indicates an increase, “−” indicates a decrease) relative to saline treated animals and are illustrated in Table 69.

Series [6] concerns rat SGLT2 mRNA. The experiment in a line: Rat SGLT2 mRNA levels in kidney, ISIS 379692 and ISIS 388625, Sprague-Dawley rats (Example 15, Table 70). It counts as in vivo. Particulars: i.p. twice per week for three weeks. How it is done: The effect of ISIS 379692 1-10-1 MOE gapmer and ISIS 388625 MOE 2-8-2 gapmer (see Table 70) on rat SGLT2 mRNA levels in vivo. […] Rats were sacrificed 48 hours following last administration and evaluated for SGLT2 levels in kidney. Target levels were determined by RT, real-time PCR as described by other examples herein. PCR results were normalized to an internal ISIS control.

The test system of the next series is ApoB mRNA. The experiment in a line: ApoB mRNA in liver of Balb/c mice, single i.p. dose 8, 4, 2 or 1 μmol/kg, with ED50 (Example 28, Table 92). It counts as in vivo, mouse. Particulars: ApoB mRNA in liver, single i.p. administration. On the procedure:
The short antisense compounds tested were ISIS 387462 and ISIS 398296. Each dose group consisted of four animals. A 5-10-5 MOE gapmer was used for a control treatment. Mice were sacrificed approximately 48 hours following the final dose. Liver tissue was collected for RNA isolation, and blood was collected for serum chemistry analyses. ApoB mRNA levels were measured by real-time PCR as described herein. ApoB mRNA levels were normalized to RNA levels as determined by RIBOGREEN, and are presented in Table 92 as percent inhibition relative to ApoB mRNA levels in saline-treated control animals.
At the 8 umol/kg dose, ApoB inhibition by the short antisense compounds was greater than observed with a 5-10-5 MOE gapmer at an equivalent dose. […] Triglycerides were reduced at the highest dose.

[7] abbreviates: 50 nmol/kg i.p. twice per week for three weeks.
The mark [8] stands for this setting: 150 nmol/kg i.p. twice per week for three weeks.
Setting [9] is: 450 nmol/kg i.p. twice per week for three weeks.
[10] abbreviates: 50 nmol/kg i.p. twice per week for two weeks.
[11] abbreviates: 150 nmol/kg i.p. twice per week for two weeks.
Setting [12] is: 450 nmol/kg i.p. twice per week for two weeks.
The mark [13] stands for this setting: 0.02 umol/kg i.p. twice per week for three weeks.
[14] abbreviates: 0.1 umol/kg i.p. twice per week for three weeks.
Where [15] appears, read: 0.5 umol/kg i.p. twice per week for three weeks.

Strand notation (5' to 3'): a small letter for the sugar, then the base; units joined by * are phosphorothioate-linked, units joined directly phosphodiester-linked; [ ] holds rarer units or linkages, { } end groups; capitals alone tell only the bases. e = 2'-O-(2-methoxyethyl) (MOE); k = constrained ethyl (cEt); [5mC] = 5-methylcytosine; d = 2'-deoxy (DNA)

On to “327161 (antisense eA*eG*e[5mC]*dT*dG*d[5mC]*dT*dG*dT*dA*d[5mC]*eA*eT*e[5mC]) [compound 327161]”, for which the “percent reduction in GCGR mRNA” value is listed as −36 in the series on GCGR mRNA (25 nM); −30 in the series with GCGR mRNA (50 nM); −33 with GCGR mRNA (100 nM); −64 in the series with GCGR mRNA (200 nM); −19 in the series with monkey GCGR mRNA (25 nM); −33 with monkey GCGR mRNA (50 nM). Further, the “percent reduction in GCGR mRNA” value is recorded as −55 in the series on monkey GCGR mRNA (100 nM) and −54 in the series with monkey GCGR mRNA (200 nM).

With “ISIS 327161: GCGR; 3-10-3 MOE gapmer (antisense eA*eG*e[5mC]*dT*dG*d[5mC]*dT*dG*dT*dA*d[5mC]*eA*eT*e[5mC])”, the “GCGR mRNA” value in the series on GCGR mRNA (HepG2 cells, 25, 50, 100 or 200 nM) is on record as “reduced GCGR mRNA in a dose-dependent manner”.

In the case of “ISIS 379692: SGLT2; 1-10-1 MOE gapmer (antisense eT*dG*dT*dT*d[5mC]*d[5mC]*dA*dG*d[5mC]*d[5mC]*d[5mC]*eA)”, the “% change in SGLT2 expression relative to saline” value in the series on rat SGLT2 mRNA [1] (setting [7]) is listed as −80%; in the series with rat SGLT2 mRNA [1] (setting [8]), −85%; with rat SGLT2 mRNA [1] (setting [9]) it was −90%; in the series with mouse SGLT2 mRNA [2] (setting [10]), −52.5%; with mouse SGLT2 mRNA [2] (setting [11]) it was −70%; in the series on mouse SGLT2 mRNA [2] (setting [12]) it was −80%. In addition, the “% change in SGLT2 expression relative to saline” value with rat SGLT2 mRNA [3] is recorded as −85%; with mouse SGLT2 mRNA [4] (setting [13]) it was −55%; in the series on mouse SGLT2 mRNA [4] (setting [14]) it was −75%; in the series on mouse SGLT2 mRNA [4] (setting [15]), −85%; with rat SGLT2 mRNA [6] (dose 3.125 umol/kg (head)), “+30%”; in the series on rat SGLT2 mRNA [6] (dose 12.5 umol/kg (head)), −15%. Besides, the “% change in SGLT2 expression relative to saline” value in the series with rat SGLT2 mRNA [6] (dose 50 umol/kg (head)) is −65%; in the series on rat SGLT2 mRNA [6] (dose 200 umol/kg (head)) it was −80%. In addition, the “SGLT2 mRNA, percent change relative to saline treated animals” value is −7 percent change in the series on mouse SGLT2 mRNA [5] (5 nmol/kg i.p. twice per week for three weeks), −46 percent change with mouse SGLT2 mRNA [5] (25 nmol/kg i.p. twice per week for three weeks) and −58 percent change with mouse SGLT2 mRNA [5] (125 nmol/kg i.p. twice per week for three weeks).

As to “ISIS 379699: SGLT2; GGCATGAGCTTC 1-10-1 MOE (antisense eG*dG*d[5mC]*dA*dT*dG*dA*dG*d[5mC]*dT*dT*e[5mC])”, the “% change in SGLT2 expression relative to saline” value in the series on rat SGLT2 mRNA [1] (setting [7]) is reported as −60%; with rat SGLT2 mRNA [1] (setting [8]), −75%; in the series on rat SGLT2 mRNA [1] (setting [9]), −83%; with mouse SGLT2 mRNA [2] (setting [10]), −42.5%; in the series on mouse SGLT2 mRNA [2] (setting [11]) it was −62.5%; in the series with mouse SGLT2 mRNA [2] (setting [12]), −80%. The “% change in SGLT2 expression relative to saline” value with rat SGLT2 mRNA [3] is given as −75%; in the series with mouse SGLT2 mRNA [4] (setting [13]) it was −30%; in the series on mouse SGLT2 mRNA [4] (setting [14]), −60%; in the series on mouse SGLT2 mRNA [4] (setting [15]) it was −75%.

In the case of “ISIS 379702: targeted to SGLT2 (antisense eG*d[5mC]*dA*d[5mC]*dA*d[5mC]*dA*dG*d[5mC]*dT*dG*e[5mC])”, the “% change in SGLT2 expression relative to saline” value is listed as −52.5% in the series with mouse SGLT2 mRNA [2] (setting [10]); −72.5% with mouse SGLT2 mRNA [2] (setting [11]); −75% in the series with mouse SGLT2 mRNA [2] (setting [12]); −25% in the series on rat SGLT2 mRNA [3]; −40% in the series on mouse SGLT2 mRNA [4] (setting [13]); −65% in the series with mouse SGLT2 mRNA [4] (setting [14]). Also, the “% change in SGLT2 expression relative to saline” value in the series with mouse SGLT2 mRNA [4] (setting [15]) was −70%.

Broadly, the ED50 is the midpoint of the dose-response relation. In the case of “ISIS 398296: ApoB; GGTACATGGAAGTC 2-10-2 (6′S)-6′-methyl-Methyleneoxy BNA Unmodified Cytosines (antisense kG*kG*dT*dA*dC*dA*dT*dG*dG*dA*dA*dG*kT*kC)”, in the series with ApoB mRNA, the 50% effective dose (ED50) was 8.7 mg/kg.
